The subject of series [1] is RBL-CCR1 (Rat Basophil Leukemia-Chemokine Receptor-1) cell line. The experiment in a line: Mast cell degranulation / cell stabilization in RBL-CCR1 cells. In kind it is cell-based. As for the experimental part: The cell stabilization potential of alcaftadine was evaluated using the RBL-CCR1 (Rat Basophil Leukemia-Chemokine Receptor-1) cell line as a way of investigating its ability to effect mast cell stabilization. The use of basophil cell lines to assess anti-allergic drugs for cell stabilization potential is well established. Physiologically, basophils are similar to mast cells, containing pre-formed inflammatory mediators that are released through a similar degranulation process involving IgE cross-linking. Because these cell lines are readily available, they present efficiencies over conducting stabilization assays in mast cell lines.
Cultured RBL-CCR1 cells were sensitized to anti-DNP IgE. Following sensitization, cells were treated with various concentrations of alcaftadine or its major active metabolite (0.083%, 0.0083% and 0.00083%) or ophthalmic vehicle (placebo), and stimulated with DNP and/or MIP-1a (Macrophage Inflammatory Protein-1 alpha, a degranulation enhancer) to induce degranulation. A 10× and 100× placebo control solution (ophthalmic vehicle solution) in D-DEM (Dulbecco's modified Eagle's medium) was also employed.
However, co-stimulation induced a robust degranulation response.

Series [2] addresses T1, human histamine H4 receptor (Homo sapiens, UniProt Q9H3N8).
T1 construct: express a reporter gene construct and the human H4 receptor full-coding region; expressed in transfected cells; host or cells: SK-N-MC cells with a CRE-beta-galactosidase reporter
The experiment in a line: [3H]histamine competition binding to membranes of SK-N-MC cells transfected with human H4 receptor. The note with it: average of two runs; 10 nM [3H]histamine; Cheng and Prusoff.

In series [3] the target is T1, human histamine H4 receptor. The experiment in a line: H4 receptor agonist assay: inhibition of forskolin-induced cAMP (reporter gene) in transfected SK-N-MC cells. In kind it is cell-based. As for the experimental part:
(§1) Alcaftadine and 6,11-dihydro-11-(1-methyl-4-piperdinylidene)-5H-imidazo[2,1-b][3]benazepine-3-carboxylic acid (CAS #147083-93-0) were prepared at 10 mM in 100% dimethylsulfoxide (DMSO) for the binding assays and at 10 mM in Na/K phosphate buffer, pH 7.0, for the cellular assays. Cell pellets from SK-N-MC cells transfected with human H4 receptor were homogenized in 20 mM Tris-HCl/0.5 mM ethylendediaminetetraacetic acid (EDTA) pH 8.0 (TE buffer). Supernatants collected after centrifugation at 800 g were recentrifuged at 30,000 g for 30 min. Pellets were re-homogenized in TE buffer. […] Non-specific binding was defined with 100 μM cold histamine. […] Seven concentrations of compound were tested spanning 10^−11 to 10^−5 M with each concentration being run in triplicate. […] This assay was run twice and the results are reported as the average of the two runs. SK-N-MC cell lines were created that express a reporter gene construct and the human H4 receptor full-coding region. […] Color was quantitated on a microplate reader at absorbance 570 nm. […]
To test whether alcaftadine or 6,11-dihydro-11-(1-methyl-4-piperdinylidene)-5H-imidazo[2,1-b][3]benazepine-3-carboxylic acid (CAS #147083-93-0) were H4 receptor agonists, functional assays were carried out in SK-N-MC cells transfected with the human histamine H4 receptor. The ability of the compounds to inhibit forskolin-induced cAMP increases was assessed.

For series [4] the target is unchanged. The experiment in a line: H4 receptor antagonist assay: shift of histamine EC50, Schild plot, in transfected SK-N-MC cells. In kind it is cell-based. As for the experimental part:
as §1, with “region. The reporter gene was β-galactosidase under the control of cyclic adenosine monophosphate (cAMP) responsive elements. Cells were plated in 96-well plates the night before the assay. Antagonists were added 10 min prior to the addition of histamine, which was added directly to the cell medium. Forskolin (5 μM final concentration) was added 10 min after the addition of histamine. Cells were returned to the incubator for 6 h at 37° C. The medium was then aspirated and cells were lysed with 25 μL of 0.1× assay buffer (10 mM sodium phosphate, pH 8, 0.2 mM MgSO4, 0.01 mM MnCl2) and incubated at room temperature for 10 min.” for “region.”
To test whether alcaftadine or 6,11-dihydro-11-(1-methyl-4-piperdinylidene)-5H-imidazo[2,1-b][3]benazepine-3-carboxylic acid (CAS #147083-93-0) were antagonists of the H4 receptor, the ability of the compounds shift the EC50 of the histamine inhibition of forskolin-induced cAMP increases was assessed in SK-N-MC cells transfected with the human histamine H4 receptor. […]

Series [5] can be described thus: Systemic (plasma) levels of the carboxylic acid in patients. In kind it is in vivo, human. Particulars: for Cmax: plasma, other: ophthalmic solution, bilateral instillation, 0.25 % ophthalmic solution, 0.25% ophthalmic solution bilaterally. As for the experimental part: Patients were bilaterally dosed with 0.25% ophthalmic solutions of 6,11-dihydro-11-(1-methyl-4-piperdinylidene)-5H-imidazo[2,1-b][3]benazepine-3-carboxylic acid for seven days. The plasma levels of those patients was assessed pre-dose, and 0.25, 0.5, 1, 1.5, 2, 3, 4, 6, 8, 12, and 18 hour post medication instillation on days one and seven.

T1 sequence (Q9H3N8 whole entry): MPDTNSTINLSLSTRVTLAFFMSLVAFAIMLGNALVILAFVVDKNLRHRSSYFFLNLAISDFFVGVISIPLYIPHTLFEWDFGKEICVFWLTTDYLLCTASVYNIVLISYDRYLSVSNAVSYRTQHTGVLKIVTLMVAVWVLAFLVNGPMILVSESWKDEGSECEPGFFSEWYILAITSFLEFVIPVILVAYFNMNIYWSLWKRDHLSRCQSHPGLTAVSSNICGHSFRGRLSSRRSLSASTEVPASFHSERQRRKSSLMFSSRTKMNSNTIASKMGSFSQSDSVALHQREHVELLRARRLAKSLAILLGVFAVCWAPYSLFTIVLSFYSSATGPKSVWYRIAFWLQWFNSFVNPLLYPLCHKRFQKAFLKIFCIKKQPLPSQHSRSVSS

For the molecule `CN1CCC(=C2c3ccccc3CCn3c(C(=O)O)cnc32)CC1` [6,11-dihydro-11-(1-methyl-4-piperdinylidene)-5H-imidazo[2,1-b][3]benazepine-3-carboxylic acid], the overall membrane stabilization result in series [1] is recorded as “effective membrane stabilizing agents”. The “stabilization effect added to that of placebo” value in series [1] (10× dose level) is recorded as “enhanced the stabilization effect”. Moreover, the “degranulation at the highest concentration” value in series [1] ([…], DNP-HSA alone, MIP-1a alone, and co-stimulation) was “unanticipated and significant degranulation”. Moreover, in series [1] (co-stimulation assay, concentrations of […] and […], p<0.0001 for both concentrations), the “cell stabilization compared to co-stimulation control and negative controls (placebo 10× and placebo 100×)” value is recorded as “superior at cell stabilization”. Moreover, the Ki – broadly, the equilibrium dissociation constant of an inhibitor or competing ligand from its target – in series [2] was above 10 µM. Moreover, in series [3] (absence of histamine, read-out: agonist activity: inhibition of forskolin-induced cAMP levels (highest concentration without agonism)), the EC50 was above 100 µM. The “antagonist activity: shift of histamine EC50 (highest concentration without shift)” value in series [4] was above 100 µM. In series [5] (human, in vivo), this molecule registered a maximum plasma concentrations of 7.23 ng/mL. Further, the Cmax (commonly the maximum level reached in the sampled fluid or tissue) was found to be 3.23 ng/mL in series [5] (human, Day 1) and 2.71 ng/mL in series [5] (human, Day 7). Besides, in series [5] (post dosing, lower limit of quantification 0.1 ng/mL), the “time by which plasma concentrations declined to below the lower limit of quantification” value is at most 12 h.

With `NCCc1c[nH]cn1` [histamine, reference compound], the “agonist activity: inhibition of forskolin-induced cAMP levels” value in series [3] is “agonist”.
